Results on four molecules are retold here after publication PMC8785688 (Bioorganic & medicinal chemistry, 2021).

In series [1] the target is T1, h15-LOX-2 (Homo sapiens, UniProt O15296).
T1 sequence (O15296 1-676): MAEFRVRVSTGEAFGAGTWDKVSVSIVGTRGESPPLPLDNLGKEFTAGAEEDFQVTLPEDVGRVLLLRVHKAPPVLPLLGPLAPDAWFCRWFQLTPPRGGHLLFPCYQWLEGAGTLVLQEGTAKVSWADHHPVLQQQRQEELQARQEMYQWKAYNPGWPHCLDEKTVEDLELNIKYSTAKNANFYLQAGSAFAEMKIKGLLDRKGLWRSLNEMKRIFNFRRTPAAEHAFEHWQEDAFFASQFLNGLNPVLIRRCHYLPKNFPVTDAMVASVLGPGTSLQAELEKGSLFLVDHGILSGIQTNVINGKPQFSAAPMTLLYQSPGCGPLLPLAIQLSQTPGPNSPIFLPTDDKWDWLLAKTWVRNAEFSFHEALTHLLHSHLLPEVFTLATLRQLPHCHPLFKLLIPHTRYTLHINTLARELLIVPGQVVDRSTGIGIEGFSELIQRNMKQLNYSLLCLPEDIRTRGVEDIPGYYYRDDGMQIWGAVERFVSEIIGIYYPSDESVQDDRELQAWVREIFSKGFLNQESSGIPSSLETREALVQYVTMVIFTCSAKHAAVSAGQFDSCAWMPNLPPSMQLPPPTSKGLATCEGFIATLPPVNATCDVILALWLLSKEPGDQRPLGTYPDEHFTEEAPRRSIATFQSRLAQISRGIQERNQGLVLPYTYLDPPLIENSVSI
Briefly: Lipoxygenase UV-Vis-based IC50 assay, h15-LOX-2. The class given is biochemical.

Series [2] has as its target T1, h15-LOX-2. Briefly: Steady-state inhibition kinetics of h15-LOX-2. The format is biochemical. As to conditions: for mode of inhibition: against h15-LOX-2.
Series [3] concerns the target T1, h15-LOX-2. Briefly: Study of inhibitors as substrates of h15-LOX-2. The class given is biochemical. As to conditions: 20 μM inhibitor, absence of AA; UV-Vis and RP-HPLC.
The target in series [4] is T1, h15-LOX-2. Briefly: Hydrogen/deuterium exchange mass spectrometry of h15-LOX-2. As to conditions: 20 μM inhibitor; peptides 173-184 and 184-191 (helix α2); short time scales (< 10 min).
The series “SEC” concerns the molecule itself. Briefly: SEC. In general terms: In gel filtration, larger molecules generally elute earlier.

One may read the IC50 as the concentration needed to halve the response being measured. At h15-LOX-2 [1], `Fc1ccc(CSc2nccn2-c2ccccc2)cc1` [analog 2, 2-((4-fluorobenzyl)thio)-1-phenyl-1H-imidazole] came in with an IC50 of more than 100000 nM.

In general, Ki refers to a dissociation constant, usually derived from enzyme kinetics or from competition with a known ligand. Read a low Ki as tighter binding. Take `FC(F)(F)c1ccc(CSc2nccn2-c2ccccc2)cc1` [Inhibitor 327069]: the “enhanced inhibition of 327069 over 536924” value on h15-LOX-2 [1] (ratio of IC50 values) is on record as approximately 10 fold. At h15-LOX-2 [2], affinity was put at a Ki of 1200 nM and the mode of inhibition result is “mixed-type”. Moreover, the “substrate activity with h15-LOX-2” value at h15-LOX-2 [3] was “not substrates”. Also, the “change in H/D exchange vs h15-LOX-2 alone” value on h15-LOX-2 [4] is not above 20%.

Turning to `CCc1ccc(CSc2nccn2-c2ccccc2)cc1` [Inhibitor 327206], on h15-LOX-2 [2], the mode of inhibition result was “mixed-type”. The “substrate activity with h15-LOX-2” value at h15-LOX-2 [3] was “not substrates”.

B1: loop mutant (LM) of human epithelial 15-lipoxygenase-2, Mn2+-substituted (enzyme, UniProt O15296 1-676, looked up)
chain: MAEFRVRVSTGEAFGAGTWDKVSVSIVGTRGESPPLPLDNLGKEFTAGAEEDFQVTLPEDVGRVLLLRVHKAGPLAPDAWFCRWFQLTPPRGGHLLFPCYQWLEGAGTLVLQEGTAKVSWADHHPVLQQQRQEELQARQEMYQWKAYNPGWPHCLDEKTVEDLELNIKYSTAKNANFYLQAGSAFAEMKIKGLLDRKGLWRSLNEMKRIFNFRRTPAAEHAFEHWQEDAFFASQFLNGLNPVLIRRCHYLPKNFPVTDAMVASVLGPGTSLQAELEKGSLFLVDHGILSGIQTNVINGKPQFSAAPMTLLYQSPGCGPLLPLAIQLSQTPGPNSPIFLPTDDKWDWLLAKTWVRNAEFSFHEALTHLLHSHLLPEVFTLATLRQLPHCHPLFKLLIPHTRYTLHINTLARELLIVPGQVVDRSTGIGIEGFSELIQRNMKQLNYSLLCLPEDIRTRGVEDIPGYYYRDDGMQIWGAVERFVSEIIGIYYPSDESVQDDRELQAWVREIFSKGFLNQESSGIPSSLETREALVQYVTMVIFTCSAKHAAVSAGQFDSCAWMPNLPPSMQLPPPTSKGLATCEGFIATLPPVNATCDVILALWLLSKEPGDQRPLGTYPDEHFTEEAPRRSIATFQSRLAQISRGIQERNQGLVLPYTYLDPPLIENSVSI
A word on the stoichiometry N: it is the number of molecules, sites or subunits per partner or assembly. Regarding B1, in “SEC”, the “stoichiometry N” value is 2.
